Experimental data from patent publication US11332459B2 (TEIJIN PHARMA LIMITED, priority 2017, dated 2022).
Where a name gives a salt, the structure may show the parent alone.

Molecular target: T1, human TRPC6 (Homo sapiens, UniProt Q9Y210)
T1 construct: expressed in transfected cells
T1 sequence (Q9Y210 1-931): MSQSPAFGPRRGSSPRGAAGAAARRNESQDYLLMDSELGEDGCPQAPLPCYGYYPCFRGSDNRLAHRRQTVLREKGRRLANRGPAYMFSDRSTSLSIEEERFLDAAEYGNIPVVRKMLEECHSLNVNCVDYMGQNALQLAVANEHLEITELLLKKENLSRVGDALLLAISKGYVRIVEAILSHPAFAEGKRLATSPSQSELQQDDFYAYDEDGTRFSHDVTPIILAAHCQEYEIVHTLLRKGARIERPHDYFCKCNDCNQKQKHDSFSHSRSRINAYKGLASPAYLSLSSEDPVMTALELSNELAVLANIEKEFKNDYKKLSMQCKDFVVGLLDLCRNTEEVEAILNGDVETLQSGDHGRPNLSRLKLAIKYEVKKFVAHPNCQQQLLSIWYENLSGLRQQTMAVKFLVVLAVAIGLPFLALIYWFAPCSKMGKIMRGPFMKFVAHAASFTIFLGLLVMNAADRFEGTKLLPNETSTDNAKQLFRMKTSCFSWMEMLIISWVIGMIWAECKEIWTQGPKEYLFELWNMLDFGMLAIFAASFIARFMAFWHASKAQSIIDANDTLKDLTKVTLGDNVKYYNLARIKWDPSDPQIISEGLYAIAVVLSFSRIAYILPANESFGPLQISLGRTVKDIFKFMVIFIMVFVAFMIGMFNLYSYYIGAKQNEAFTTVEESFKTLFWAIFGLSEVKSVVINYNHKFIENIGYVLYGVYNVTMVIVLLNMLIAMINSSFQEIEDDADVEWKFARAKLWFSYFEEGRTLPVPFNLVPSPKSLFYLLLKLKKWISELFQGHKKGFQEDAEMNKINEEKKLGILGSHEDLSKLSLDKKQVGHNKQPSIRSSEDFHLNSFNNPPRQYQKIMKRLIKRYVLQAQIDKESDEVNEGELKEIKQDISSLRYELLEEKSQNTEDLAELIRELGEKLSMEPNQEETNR
Experiment: TRPC6 calcium flux assay (FLIPR, OAG-stimulated calcium influx)
Assay type: cell-based
Details: HEK293 cells stably transfected with human TRPC6, read-out: hTRPC6 Potency
Procedure, shortened: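 HEK293 cells stably expressing human TRPC6, loaded with calcium dye 90–120 min at RT, then given compound for 25 min before OAG (50 uM final, 0.5% DMSO) in HEPES buffer pH 7.2 with 2 mM CaCl2. Background-subtracted FLIPR peak over 180 s normalized to OAG vs buffer; IC50 from dose plot.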

| SMILES | IC50 |
| --- | --- |
| C[C@H](c1ccc(C#N)cn1)n1c(N2CC[C@@H](F)[C@H](N)C2)nc2ccccc21 [Example 297, 6-((R)-1-(2-((3R,4R)-3-amino-4-fluoropiperidin-1-yl)-1H-benzo[d]imidazol-1-yl)ethyl)nicotinonitrile hydrochloride] | 78.5 nM |
| C[C@@H](c1ccc(C#N)cn1)n1c(N2CC[C@@H](F)[C@H](N)C2)nc2ccccc21 [Example 298, 6-((S)-1-(2-((3R,4R)-3-amino-4-fluoropiperidin-1-yl)-1H-benzo[d]imidazol-1-yl)ethyl)nicotinonitrile hydrochloride] | 17.2 nM |
| CC[C@H](c1ccc(C#N)cn1)n1c(N2CCC[C@H](N)C2)nc2ccccc21 [Example 299, 6-((R)-1-(2-((S)-3-aminopiperidin-1-yl)-1H-benzo[d]imidazol-1-yl)propyl)nicotinonitrile hydrochloride] | 8.76 nM |
| CC[C@@H](c1ccc(C#N)cn1)n1c(N2CCC[C@H](N)C2)nc2ccccc21 [Example 300, 6-((S)-1-(2-((S)-3-aminopiperidin-1-yl)-1H-benzo[d]imidazol-1-yl)propyl)nicotinonitrile hydrochloride] | 406 nM |
| N[C@@H]1CN(c2nc3cc(F)c(F)cc3n2Cc2ccc(F)cn2)CC[C@@H]1F [Example 304, (3R,4S)-1-(5,6-difluoro-1-((5-fluoropyridin-2-yl)methyl)-1H-benzo[d]imidazol-2-yl)-4-fluoropiperidin-3-amine] | 52.4 nM |
| N[C@@H]1CN(c2nc3ccc(C(F)(F)F)cc3n2Cc2ncc(F)cn2)CC[C@@H]1F [Example 305, (3R,4S)-4-fluoro-1-(1-((5-fluoropyrimidin-2-yl)methyl)-6-(trifluoromethyl)-1H-benzo[d]imidazol-2-yl)piperidin-3-amine] | 0.288 nM |
| N[C@@H]1CN(c2nc3cc(C(F)(F)F)ccc3n2Cc2ncc(F)cn2)CC[C@@H]1F [Example 306, (3R,4S)-4-fluoro-1-(1-((5-fluoropyrimidin-2-yl)methyl)-5-(trifluoromethyl)-1H-benzo[d]imidazol-2-yl)piperidin-3-amine] | 1430 nM |
| N[C@@H]1CN(c2nc3cc(F)c(F)cc3n2Cc2ccc(F)cn2)CCC1(F)F [Example 307, (R)-1-(5,6-difluoro-1-((5-fluoropyridin-2-yl)methyl)-1H-benzo[d]imidazol-2-yl)-4,4-difluoropiperidin-3-amine] | 376 nM |
| N[C@@H]1CN(c2nc3ccc(C(F)(F)F)cc3n2CC(=O)N2CCC2)CC[C@@H]1F [Example 308, 2-(2-((3R,4S)-3-amino-4-fluoropiperidin-1-yl)-6-(trifluoromethyl)-1H-benzo[d]imidazol-1-yl)-1-(azetidin-1-yl)ethan-1-one] | > 3750 nM |
| N[C@@H]1CN(c2nc3cc(C(F)(F)F)ccc3n2CC(=O)N2CCC2)CC[C@@H]1F [Example 309, 2-(2-((3R,4S)-3-amino-4-fluoropiperidin-1-yl)-5-(trifluoromethyl)-1H-benzo[d]imidazol-1-yl)-1-(azetidin-1-yl)ethan-1-one] | 280 nM |
| CC1(C)CCCN1C(=O)Cn1c(N2CC[C@@H](F)[C@H](N)C2)nc2cc(F)c(F)cc21 [Example 310, 2-(2-((3R,4R)-3-amino-4-fluoropiperidin-1-yl)-5,6-difluoro-1H-benzo[d]imidazol-1-yl)-1-(2,2-dimethylpyrrolidin-1-yl)ethan-1-one] | 765 nM |
| N#Cc1ccc(Cn2c(N3CC[C@H](O)[C@H](N)C3)nc3ccc(F)cc32)nc1 [Example 311, 6-((2-((3R,4S)-3-amino-4-hydroxypiperidin-1-yl)-6-fluoro-1H-benzo[d]imidazol-1-yl)methyl)nicotinonitrile] | 217 nM |
| N#Cc1ccc(Cn2c(N3CC[C@H](O)[C@H](N)C3)nc3cc(F)ccc32)nc1 [Example 312, 6-((2-((3R,4S)-3-amino-4-hydroxypiperidin-1-yl)-5-fluoro-1H-benzo[d]imidazol-1-yl)methyl)nicotinonitrile] | 2860 nM |
| C[C@H](c1ccc(C#N)cc1)n1c(N2CCC[C@H](N)C2)nc2ccccc21 [Example 313, 4-((R)-1-(2-((S)-3-aminopiperidin-1-yl)-1H-benzo[d]imidazol-1-yl)ethyl)benzonitrile hydrochloride] | 15800 nM |

Results, then the compound that gave them:

| IC50 | SMILES |
| --- | --- |
| > 50000 nM | C[C@@H](c1ccc(C#N)cc1)n1c(N2CCC[C@H](N)C2)nc2ccccc21 [Example 314, 4-((S)-1-(2-((S)-3-aminopiperidin-1-yl)-1H-benzo[d]imidazol-1-yl)ethyl)benzonitrile hydrochloride] |
| > 50000 nM | N#Cc1ccc(Cn2c(N3CCC[C@H](N)C3)nc3ccccc32)c(F)c1 [Example 315, (S)-4-((2-(3-aminopiperidin-1-yl)-1H-benzo[d]imidazol-1-yl)methyl)-3-fluorobenzonitrile hydrochloride] |
| 2.04 nM | N[C@H]1CCCN(c2nc3ccccc3n2Cc2ccc(Cl)cc2)C1 [Example 316, (S)-1-(1-(4-chlorobenzyl)-1H-benzo[d]imidazol-2-yl)piperidin-3-amine hydrochloride] |
| 1360 nM | C[C@H](c1ccc(C#N)cc1)n1c(N2CC[C@H](F)[C@H](N)C2)nc2ccccc21 [Example 317, 4-((R)-1-(2-((3R,4S)-3-amino-4-fluoropiperidin-1-yl)-1H-benzo[d]imidazol-1-yl)ethyl)benzonitrile hydrochloride] |
| 37.7 nM | C[C@@H](c1ccc(C#N)cc1)n1c(N2CC[C@H](F)[C@H](N)C2)nc2ccccc21 [Example 318, 4-((S)-1-(2-((3R,4S)-3-amino-4-fluoropiperidin-1-yl)-1H-benzo[d]imidazol-1-yl)ethyl)benzonitrile hydrochloride] |
| 456 nM | C[C@H](c1ccc(C#N)cc1)n1c(N2CC[C@@H](F)[C@H](N)C2)nc2ccccc21 [Example 319, 4-((R)-1-(2-((3R,4R)-3-amino-4-fluoropiperidin-1-yl)-1H-benzo[d]imidazol-1-yl)ethyl)benzonitrile hydrochloride] |
| 12 nM | C[C@@H](c1ccc(C#N)cc1)n1c(N2CC[C@@H](F)[C@H](N)C2)nc2ccccc21 [Example 320, 4-((S)-1-(2-((3R,4R)-3-amino-4-fluoropiperidin-1-yl)-1H-benzo[d]imidazol-1-yl)ethyl)benzonitrile hydrochloride] |
| 4.07 nM | N#Cc1ccc(Cn2c(N3CCC[C@H](N)C3)nc3ccccc32)c(Cl)c1 [Example 321, (S)-4-((2-(3-aminopiperidin-1-yl)-1H-benzo[d]imidazol-1-yl)methyl)-3-chlorobenzonitrile hydrochloride] |
| 1450 nM | C[C@H](c1ccc(Cl)cc1Cl)n1c(N2CC[C@@H](F)[C@H](N)C2)nc2cc(F)c(F)cc21 [Example 322, (3R,4R)-1-(1-((1R)-1-(2,4-dichlorophenyl)ethyl)-5,6-difluoro-1H-benzimidazol-2-yl)-4-fluoro-3-piperidinamine] |
| > 3750 nM | C[C@@H](c1ccc(Cl)cc1Cl)n1c(N2CC[C@@H](F)[C@H](N)C2)nc2cc(F)c(F)cc21 [Example 323, (3R,4R)-1-(1-((1S)-1-(2,4-dichlorophenyl)ethyl)-5,6-difluoro-1H-benzimidazol-2-yl)-4-fluoro-3-piperidinamine] |
| > 3750 nM | C[C@H](c1ccccc1Cl)n1c(N2CC[C@@H](F)[C@H](N)C2)nc2cc(F)c(F)cc21 [Example 324, (3R,4R)-1-(1-((1R)-1-(2-chlorophenyl)ethyl)-5,6-difluoro-1H-benzimidazol-2-yl)-4-fluoro-3-piperidinamine] |
| 743 nM | C[C@@H](c1ccccc1Cl)n1c(N2CC[C@@H](F)[C@H](N)C2)nc2cc(F)c(F)cc21 [Example 325, (3R,4R)-1-(1-((1S)-1-(2-chlorophenyl)ethyl)-5,6-difluoro-1H-benzimidazol-2-yl)-4-fluoro-3-piperidinamine] |
| 2930 nM | C[C@H](c1cccc(Cl)c1)n1c(N2CC[C@@H](F)[C@H](N)C2)nc2cc(F)c(F)cc21 [Example 326, (3R,4R)-1-(1-((1R)-1-(3-chlorophenyl)ethyl)-5,6-difluoro-1H-benzimidazol-2-yl)-4-fluoro-3-piperidinamine] |
| 1370 nM | C[C@@H](c1cccc(Cl)c1)n1c(N2CC[C@@H](F)[C@H](N)C2)nc2cc(F)c(F)cc21 [Example 327, (3R,4R)-1-(1-((1S)-1-(3-chlorophenyl)ethyl)-5,6-difluoro-1H-benzimidazol-2-yl)-4-fluoro-3-piperidinamine] |
| > 3750 nM | C[C@H](c1cc(Cl)ccc1Cl)n1c(N2CC[C@@H](F)[C@H](N)C2)nc2cc(F)c(F)cc21 [Example 328, (3R,4R)-1-(1-((1R)-1-(2,5-dichlorophenyl)ethyl)-5,6-difluoro-1H-benzimidazol-2-yl)-4-fluoro-3-piperidinamine] |
